We go through 15 compounds from US20250177324A1, “A[…], AND PREPARATION METHOD THEREFOR AND USE THEREOF” (SHANGHAI ZHIGEN PHARMACEUTICAL & TECHNOLOGY CO. LTD., priority 2022, published 2025).

Structures can show the parent of a compound that is named as a salt. Where two headings read alike, the source gives them in different places.

One data set has as its system C57 mice. The experiment in a line: Forced swim test of oral administration in mice (antidepressant activity). The class given is in vivo. Particulars: for inhibition in vivo at 20 mg/kg: Mus musculus, po. The procedure:
To investigate the effects of different compounds on depression-like behavior in C57 mice by single oral administration of 20 mg/kg for 1 h and 24 h followed by forced swimming experiment, respectively.
The experimental animals were 6-week-old C57 mice, male, C57 breed mice purchased from Shanghai Slaughter Laboratory Animal Co. Ltd, weighing 20.45±0.19 g. The animals arrived at the Animal Breeding Center of the Shanghai Institute of Pharmaceutical Sciences, Chinese Academy of Sciences (Animal Production License: SCXK9[Shanghai]2004-0002, Use License: SYXK [Shanghai]2003-0029) before the experiments and were acclimated to the animal facilities for more than 3 days, 6 animals/cage were feed. The feeding environment was room temperature 23±0.2° C. and 12/12 h day/night alternating light and dark. Prior to behavioral testing, animals were moved to the behavioral testing room 2 hours in advance to acclimatize them to the environment and reduce their nervousness.
Preparation of the test material: the test compounds were weighed and dissolved in 0.9% NaCl solution, mixed well, and prepared into 1 mg/ml and 2 mg/ml solution for use, respectively.
24 h prior to drug administration, mice were placed in a cylindrical tank to acclimatize to the water environment for 10 min. On the day of the behavioral test, the animals were administered the drug once, by gavage/intraperitoneal injection at 1 h and 24 h prior to the behavioral test, respectively (as shown in Table 1).
The antidepressant effect of the compounds was evaluated by their ability to cause a reduction in the immobility time of the animals in the forced swim test compared to the blank group.

A short description of data set [1]: Solid-state chemical stability under different storage conditions (liquid chromatography). Particulars: for Stability of solid state compound, 0 Days (%): liquid chromatography. The class given is physicochemical. On the procedure:
The HPLC conditions were as follows:
Configuration of test solution: appropriate amount of sample was dissolved and diluted with a diluent (0.03 mol/L phosphate buffer-acetonitrile (80:20)) to make 1 mg/mL solution.
Chromatographic conditions: according to the high performance liquid chromatography (Chinese Pharmacopoeia 2020 version of the four general 0512) test, using octadecyl-bonded silica gel (Agilent Eclipse Plus C18, 4.6 mm*250 mm, 5.0 μm, P/N for 959990-902 or a chromatographic column with equivalent performance) as a filler; 0.03 mol/L phosphate buffer (4.08 g of potassium dihydrogen phosphate was dissolved in 1000 ml of water and shaken well) was used as mobile phase A and acetonitrile as mobile phase B at a flow rate of 1 ml/min, the column temperature was 30° C., the detection wavelength was 220 nm, the injection volume was 10 ul, and the sample plate was controlled to 8° C. and running for 65 min. Gradient elution was performed according to the following table: […]
Configuration of test solution: appropriate amount of the product was dissolved and diluted with a diluent (0.1% phosphoric acid-acetonitrile (80:20)) to make 1 mg/mL solution.
Chromatographic conditions: according to the high performance liquid chromatography (Chinese Pharmacopoeia 2020 version of the four general 0512) test, using octadecyl bonded silica gel (Agilent Eclipse Plus C18, 4.6 mm*250 mm, 5.0 μm, P/N 959990-902 or a chromatographic column with equivalent performance) as a filler; 0.1% phosphate buffer (1 ml of phosphoric acid in 1000 ml of water and shake well) as mobile phase A, acetonitrile as mobile phase B, flow rate of 1 ml/min, column temperature of 30° C., detection wavelength of 220 nm, injection volume of 10 ul, running for 48 minutes. Gradient elution was performed according to the following table: […]

The nature of data set [2]: Brain tissue distribution study in rats. The note with it: SD rats, 10 mg/kg gavage. The class given is in vivo. On the procedure:
Healthy male SD rats, randomly grouped with 3 rats in each group, were given the test compounds by gavage.
Each test compound was dissolved in saline to form a certain concentration solution for administration.
Fasting but not abstaining from water for 12-14 hours on the day before administration, and food was given 4 h after administration.
Brain tissues were collected after the animals were bled, cleaned, and homogenized with 50% ice methanol 1:4 (m/v). The collection time points were 5 min, 10 min, 30 min, and 2 h after the administration of subjects; 30.0 μL of tissue samples were taken (the samples were taken from the refrigerator at −80° C. and vortexed for 30 s after natural dissolution at room temperature) into 1.5 mL centrifugal tubes, and 300.0 μL of the internal standard solution (30 ng/mL buspirone in acetonitrile) was added; the samples were vortexed for 60 s, and centrifuged for 3 min (the centrifugal force was 12,000 rpm). 75 μL of the supernatant was transferred to a 96-well plate containing an equal volume of water, shaken to mix well and then sampled for LC-MS/MS analysis, the sample volume is 10 μL.

Setting [3] is: reduction of immobility time vs blank group, single gavage 20 mg/kg, test 1 h after dosing, read-out: 1 h inhibition (%).
[4] abbreviates: reduction of immobility time vs blank group, single gavage 20 mg/kg, test 24 h after dosing, read-out: 24 h inhibition (%).

For the compound `CNC1(c2cccc(F)c2F)CCCC(C)(O)C1=O.Cl` (stereo not drawn) [Compound 65, 2-(2,3-difluorophenyl)-6-hydroxy-6-methyl-2-methylaminocyclohexan-1-one hydrochloride], in the data set with C57 mice (setting [3]), the inhibition in vivo at 20 mg/kg is 26.4 ± 1.1%. In addition, the inhibition in vivo at 20 mg/kg in the data set on C57 mice (setting [4]) came out at 37.9 ± 2.3%. Also, in data set [1] (40° C., 75% RH), the “Stability of solid state compound, 0 Days (%)” value came to 99.54%; the “Stability of solid state compound, 5 Days (%)” value (shortened to “Stability … 5 Days (%)”) was determined as 99.37%; the “Stability of solid state compound, 10 Days (%)” value (from here on “Stability … 10 Days (%)”) amounted to 99.32%; the “Stability of solid state compound, 30 Days (%)” value (from here on “Stability … 30 Days (%)”) was found to be 99.22%.
Take `CN[C@@]1(c2cccc(OC(F)(F)F)c2F)CCC[C@](C)(O)C1=O` [Compound 57, (2R,6S)-2-(2-fluoro-3-(trifluoromethoxy)phenyl)-6-hydroxy-6-methyl-2-(methylamino)cyclohexan-1-one hydrochloride]: the figures for the inhibition in vivo at 20 mg/kg in the data set with C57 mice (setting [3]) and in the data set with C57 mice (setting [4]) were 42.2 ± 1.8% and 36.5 ± 3%, respectively.
In the case of `CC1(C)CC[C@@](N)(c2ccccc2Cl)C(=O)[C@@H]1O` [Comparative compound 4, reference compound], the inhibition in vivo at 20 mg/kg was 2.9 ± 1% in the data set on C57 mice (setting [3]) and -17.2 ± 2% with C57 mice (setting [4]).
`C[C@@]1(O)CCC[C@@](N)(c2ccc(C(F)(F)F)cc2)C1=O.Cl` [Compound 52, (2R, 6R)-2-amino-6-hydroxy-6-methyl-2-(4-(trifluoromethyl)phenyl)cyclohexan-1-one hydrochloride]: the inhibition in vivo at 20 mg/kg in the data set with C57 mice (setting [3]) was found to be 29.5 ± 1.1%. Besides, the inhibition in vivo at 20 mg/kg in the data set with C57 mice (setting [4]) is 25.6 ± 2.1%. Further, in data set [1] (40° C., 75% RH), the “Stability of solid state compound, 0 Days (%)” value is listed as 99.89%; the “Stability … 10 Days (%)” value was 99.89%; the “Stability … 30 Days (%)” value is on record as 99.90%; the “Stability of solid state compound, 60 Days (%)” value (from here on “Stability … 60 Days (%)”) came to 99.88%. For the same compound, the “Stability of solid state compound, 180 Days (%)” value in data set [1] (40° C., 75% RH, 180 days) is on record as 99.82%.
As for `Cl.N[C@@]1(c2ccc(C(F)(F)F)cc2)CCC[C@@H](O)C1=O` [Comparative compound 1, reference compound], the inhibition in vivo at 20 mg/kg in the data set on C57 mice (setting [3]) came out at 30.6 ± 3.1%. In addition, the inhibition in vivo at 20 mg/kg with C57 mice (setting [4]) was 35 ± 0.3%. Besides, in data set [1] (40° C., 75% RH), the “Stability of solid state compound, 0 Days (%)” value is 99.98%; the “Stability … 5 Days (%)” value was 98.94%; the “Stability … 10 Days (%)” value was 98.74%; the “Stability … 30 Days (%)” value was 95.88%. Moreover, the “Stability … 60 Days (%)” value in data set [1] (40° C., 75% RH) is 91.57%.
As to `C[C@]1(O)CCC[C@@](N)(c2ccc(C(F)(F)F)cc2)C1=O.Cl` [Compound 54, (2R, 6S)-2-amino-6-hydroxy-6-methyl-2-(4-(trifluoromethyl)phenyl)cyclohexan-1-one hydrochloride], the inhibition in vivo at 20 mg/kg with C57 mice (setting [3]) is 33 ± 2.5%. In addition, in the data set with C57 mice (setting [4]), the inhibition in vivo at 20 mg/kg was 38.7 ± 3.3%. Also, in data set [1] (40° C., 75% RH), the “Stability of solid state compound, 0 Days (%)” value is given as 99.27%; the “Stability … 10 Days (%)” value was found to be 99.23%; the “Stability … 60 Days (%)” value is recorded as 99.20%.
For the compound `N[C@@]1(c2ccccc2Cl)CC2(CC2)C[C@@H](O)C1=O` [Comparative compound 5, reference compound], the inhibition in vivo at 20 mg/kg in the data set on C57 mice (setting [3]) is 22.8 ± 2.5%; in the data set with C57 mice (setting [4]), 19.1 ± 2.1%.
Turning to `Cl.[2H]C([2H])([2H])N[C@@]1(c2ccc(C(F)(F)F)cc2)CCC[C@](C)(O)C1=O` [Compound 76, (2S,6R)-2-hydroxy-2-methyl-6-trideutero-methylamino-6-(4-(trifluoromethyl)phenyl)cyclohexan-1-one hydrochloride], in the data set on C57 mice (setting [3]), the inhibition in vivo at 20 mg/kg was 65.2 ± 0.8%. In addition, the inhibition in vivo at 20 mg/kg with C57 mice (setting [4]) is 47.1 ± 3.2%. Moreover, in data set [1] (40° C., 75% RH), the “Stability of solid state compound, 0 Days (%)” value is recorded as 99.88%; the “Stability … 10 Days (%)” value was 99.65%; the “Stability … 30 Days (%)” value worked out at 99.84%.
Take `CCN[C@@]1(c2ccc(C(F)(F)F)cc2)CCC[C@](C)(O)C1=O.Cl` [Compound 77, (2R,6S)-2-ethylamino-6-hydroxy-6-methyl-2-(4-(trifluoromethyl)phenyl)cyclohexan-1-one hydrochloride]: in the data set with C57 mice (setting [3]), the inhibition in vivo at 20 mg/kg worked out at 69.8 ± 1.6%. The inhibition in vivo at 20 mg/kg in the data set with C57 mice (setting [4]) came out at 44.3 ± 3.5%. In data set [1] (25° C., 60% RH), the “Stability of solid state compound, 0 Days (%)” value is reported as 99.70%; the “Stability … 10 Days (%)” value is 99.69%; the “Stability … 30 Days (%)” value is recorded as 99.70%.
For `C[C@@H]1CC[C@@](N)(c2ccccc2Cl)C(=O)[C@@H]1O` [Comparative compound 3, reference compound], the inhibition in vivo at 20 mg/kg was 22.6 ± 2.7% in the data set with C57 mice (setting [3]) and 23.7 ± 3.2% in the data set with C57 mice (setting [4]).
Take `CN[C@@]1(c2ccc(C(F)(F)F)cc2)CCC[C@@](C)(O)C1=O.Cl` [Compound 71, (2R,6R)-2-hydroxy-2-methyl-6-methylamino-6-(4-(trifluoromethyl)phenyl)cyclohexan-1-one hydrochloride]: the inhibition in vivo at 20 mg/kg in the data set with C57 mice (setting [3]) was found to be 42.4 ± 0.4%. The inhibition in vivo at 20 mg/kg with C57 mice (setting [4]) was 40.2 ± 1.6%. Moreover, in data set [1] (40° C., 75% RH), the “Stability of solid state compound, 0 Days (%)” value is given as 99.67%; the “Stability … 5 Days (%)” value turned out to be 99.46%; the “Stability … 10 Days (%)” value was 99.46%; the “Stability … 30 Days (%)” value was determined as 99.45%.
`CNCCC(Oc1ccc(C(F)(F)F)cc1)c1ccccc1` (stereo not drawn) [Fluoxetine, reference compound]: the inhibition in vivo at 20 mg/kg in the data set on C57 mice (setting [3]) came to 2.4 ± 1.1%; in the data set on C57 mice (setting [4]) it was 2.3 ± 3.1%. For the same compound, the “antidepressant effect in the forced swim test (in words)” value with C57 mice (oral administration, 1 h and 24 h) is “did not show antidepressant effect”.
Regarding `CC1(C)C[C@@H](O)C(=O)[C@](N)(c2ccccc2Cl)C1` [Comparative compound 6, reference compound], the inhibition in vivo at 20 mg/kg in the data set with C57 mice (setting [3]) came to 18.2 ± 1.6%; in the data set on C57 mice (setting [4]), 11.3 ± 2%.
`CN[C@@]1(c2cccc(OC(F)(F)F)c2)CCC[C@](C)(O)C1=O.Cl` [Compound 68, (2S,6R)-2-hydroxy-2-methyl-6-methylamino-6-(3-(trifluoromethoxy)phenyl)cyclohexan-1-one hydrochloride]: in the data set on C57 mice (setting [3]), the inhibition in vivo at 20 mg/kg was determined as 26.2 ± 4.1%. In addition, the inhibition in vivo at 20 mg/kg in the data set with C57 mice (setting [4]) worked out at 37.4 ± 0.7%. For the same compound, in data set [1] (40° C., 75% RH), the “Stability of solid state compound, 0 Days (%)” value was 99.12%; the “Stability … 5 Days (%)” value stood at 99.11%; the “Stability … 10 Days (%)” value amounted to 99.12%.
Consider `N[C@@]1(c2ccccc2Cl)CCC[C@@H](O)C1=O` [(2R,6R)-HNK, reference compound], for which the “1 h inhibition (%)” value in the data set on C57 mice (reduction of immobility time vs blank group, single gavage 20 mg/kg, test 1 h after dosing) is 21.1 ± 1.4%. The “24 h inhibition (%)” value in the data set with C57 mice (reduction of immobility time vs blank group, single gavage 20 mg/kg, test 24 h after dosing) was 24.8 ± 6.9%. For the same compound, in data set [1] (40° C., 75% RH), the “Stability of solid state compound, 0 Days (%)” value is 99.18%; the “Stability … 5 Days (%)” value was 98.54%; the “Stability … 10 Days (%)” value turned out to be 97.85%. In addition, in data set [2], the brain/plasma ratio is listed as 0.95. Also, in data set [2] (brain), the AUC0-t brain was 2480 ng·h/g and the Cmax brain came out at 1495 ng/g. In data set [2] (plasma), this compound yielded an AUC0-t plasma of 2610 ng·h/mL and a Cmax plasma of 1480 ng/mL.
